“And” between values parts separate entries of the source, which are not always exact repeats. Identical values can stand only once.
Assays:
Type in all cases: in vivo, human
[1] = Quantitation of the compound in serum by high performance liquid chromatography (Examples 3, 4); settings: for level in serum: healthy persons, newborns to 90-year-old
Description: (§1) Standard solution of 2-amino-3-[2-(α-mannopyranosyl)indole-3-yl]propionic acid obtained in Example 1 above was prepared. Next, 350 μl of the standard solution was added to 500 μl of 0.1N hydrochloric acid containing 1% vitamin C, mixed with 50 μl of 40 μM N-methyl serotonin as an internal standard then 100 μl of 60% perchloric acid, and centrifuged at 3000 rpm at 4° C. The supernatant was filtered through a 0.22 μm filter to obtain a filtrate.
(§2) The filtrate was subjected to high performance liquid chromatography under the following conditions:
Column: Finepak SILC18-T5 (4 mm×25 cm, JASCO Corporation)
Development solvent: Mixed solvent of acetonitrile and buffer (70 mM citric acid: 60 mM disodium phosphate=1;1, v/v, pH3.5)
Detection: Fluorescence, excited at 302 nm, determined at 350 nm
Sera from healthy persons and patients with renal disease were quantitated for the compound of the present invention. First, bloods were collected from the subjects and left to stand at room temperature for 30 minutes for coagulation. Next, the sera were collected by centrifugation at 3000 rpm for 10 minutes and stored at −80° C. until use. Sera from healthy persons (males and females, newborns to 90-year-old persons) were quantitated for the compound of the present invention in the same manner as that of Example 2 except that sera were used instead of the standard solution. […] No difference was detected between ages or between sexes.
Next, sera from patients with renal disease (17 males, average age of 53.9; 13 females, average age of 46.4) were quantitated for the compound of the present invention. […] As shown in this figure, the average value of 856 ng/ml (SD 247) was obtained for samples from male patients while 854 ng/ml (SD 305) for samples from female patients.
Sera and cerebrospinal fluids from healthy persons and patients with central nervous disease were quantitated for the compound of the present invention. Both sera and cerebrospinal fluids were collected from 22 healthy persons, one patient with spinocerebellar ataxia and one patient with metastatic brain tumor, and quantitated for the compound of the present invention in the sera and the cerebrospinal fluids in the same manner as that of Example 2 except that sera or cerebrospinal fluids were used instead of the standard solution. […] The result of quantitation of the compound in cerebrospinal fluids is shown in FIG. 3 in which ●, □ and Δ show the healthy persons, the patient with spinocerebellar ataxia, and the patient with metastatic brain tumor, respectively. As shown in this figure, the level of the compound in cerebrospinal fluids from healthy persons was determined to be 130.4 ng/ml (SD 29.1). The level of the compound in cerebrospinal fluid from the patient with spinocerebellar ataxia was determined to be 399.4 ng/ml. The level of the compound in cerebrospinal fluid from the patient with metastatic brain tumor was determined to be 822.6 ng/ml.

[2] = GFR assay: the present compound in urine and sera by enzyme immunoassay, clearance (Example 8)
Description: Enzyme immunoassay was performed using the antibody prepared in Example 6. First, 50 μl of 2-amino-3-[2-(α-D-mannopyranosyl)indole-3-yl]propionic acid-BSA conjugate solution (20 μg/ml 0.1M carbonate buffer, pH9.5) was dispensed into a 96-well microtiter plate (NUNC. Corp.) and left to stand at 4° C. overnight. After washing the plate three times with PBS, 250 μl of 1% BSA/PBS solution was dispensed into the plate and left to stand at room temperature for 1 hour. Then, the plate was washed three times with PBS to be used as a reaction plate. Next, 50 μl of a test sample diluted with 0.1M phosphate buffer (pH 7.4) supplemented with varied concentrations of 2-amino-3-[2-(α-D-mannopyranosyl)indole-3-yl]propionic acid/0.1%BSA or 0.1M phosphate buffer supplemented with 0.1% BSA (pH7.4) was dispensed into the reaction plate into which 50 μl of the monoclonal antibody prepared in Example 6 (10 ng/ml, 0.1M phosphate buffer solution supplemented with 0.1% BSA, pH7.4) was added while stirring. The mixture was allowed to react at room temperature for 3 hours. Then, after the reaction was completed, the plate was washed five times with PBS containing 0.05% Tween 20, and then 50 μl of POD labeled-anti-mouse immunoglobulins-rabbit IgG (DAKO) was added to the plate for reaction at room temperature for 1 hour. After the reaction, the plate was washed five times with PBS containing 0.05% Tween 20, added with 50 μl of MCDP/50 mM citrate buffer solution (pH5.0), and the mixture was allowed to react at room temperature for 30 minutes. Finally, 50 μl of a reaction stopper (ethyl diethyldithiocarbamate) was added to the plate, and absorbance was then determined at 660 nm by a microplate reader. The calibration curve is shown in FIG. 5 in which the concentration of 2-amino-3-[2-(α-D-mannopyranosyl)indole-3-yl]propionic acid was indicated as a concentration of single compound.
Eighteen patients with non-renal disease were assayed for the levels of 2-amino-3-[2-(α-mannopyranosyl)indole-3-yl]propionic acid in their urine and sera as described in Example 7. Urine samples stored for 24 hours were used. Volumes of those samples were determined and then partially stored at −80° C. until assay. Upon use, the frozen urine samples were thawed at 37° C. and kept warm. Subsequently, after sufficient stirring and mixing, the samples were centrifuged at 3000 rpm for 10 minutes to remove impurities. The resultant supernatants were used as samples. Serum samples were collected from the patients' blood, left to stand at room temperature for 30 minutes for coagulation, and centrifuged to collect sera which were stored at −80° C. until use.
Clearance View=(level in urine×urine volume)/(24×60×serum level)

[3] = Quantitation of the compound in amniotic fluid by high performance liquid chromatography (Example 5)
Description: as §1, §2
Amniotic fluids from pregnant healthy persons and pregnant patients with uremic syndrome staying in hospital were quantitated for the compound of the present invention. Amniotic fluids were collected from 21 healthy persons (21-41 weeks old) and 9 pregnant patients with uremic syndrome (24-49 weeks old), and assayed for the compound of the present invention. The quantitation was performed in the same manner as that of Example 2 except that amniotic fluids were used instead of the standard solution. The results are shown in FIG. 4 in which Δ and ● show the healthy persons and the pregnant patients with uremic syndrome, respectively. As shown in this figure, 353.0 ng/ml (SD 120.1) was obtained for the healthy persons while […] for the pregnant patients with uremic syndrome.

level in serum, average value ([1]; female patients with renal disease (13 females), SD 305): 854 ng/mL
range of levels in sera from 99% of subjects ([1]; healthy persons (n=50)): 52 to 99 ng/mL
level in serum ([1]; females, SD 12.6): 74.5 ng/mL
level in serum ([1]; males, SD 10.3): 76.3 ng/mL
level in serum, average value ([1]; male patients with renal disease (17 males), SD 247): 856 ng/mL
range of levels in sera from 99% of subjects ([1]; patients with renal dysfunction (n=30)): 307 to 1403 ng/mL
level in sera ([1]; sera of Example 4 subjects, SD 13.8): 69.9 ng/mL
clearance (ml/min) the present compound ([2]; Average of 18 subjects): 68.40 mL/min
the present compound in serum ([2]; Average of 18 subjects): 0.24 nmol/mL
the present compound in urine ([2]; Average of 18 subjects): 14.87 nmol/mL
range of levels in amniotic fluids from 99% of subjects ([3]; healthy persons (n=21)): 113 to 593 ng/mL
level in amniotic fluids ([3]; pregnant healthy persons (n=21), SD 120.1): 353.0 ng/mL
range of levels in amniotic fluids from 99% of subjects ([3]; pregnant patients with uremic syndrome (n=9)): 675 to 2147 ng/mL
level in amniotic fluids ([3]; pregnant patients with uremic syndrome (n=9), SD 367.9): 410.7 ng/mL
SMILES: NC(Cc1c([C@H]2O[C@H](CO)[C@@H](O)[C@H](O)[C@@H]2O)[nH]c2ccccc12)C(=O)O (stereo partly drawn) [the present compound, 2-amino-3-[2-(α-mannopyranosyl)indole-3-yl]propionic acid]
the present compound in serum ([2]; individual subjects 1-18, patients with non-renal disease): 0.240 nmol/ml (2×) and 0.193 nmol/ml (3×) and 0.166 nmol/ml and 0.280 nmol/ml and 0.200 nmol/ml and 0.319 nmol/ml (3×) and 0.279 nmol/ml (2×) and 0.186 nmol/ml and 0.309 nmol/ml and 0.213 nmol/ml and 0.226 nmol/ml and 0.159 nmol/ml
the present compound in urine ([2]; individual subjects 1-18, urine stored for 24 hours): 11.677 nmol/mL and 7.195 nmol/mL and 4.242 nmol/mL and 14.862 nmol/mL and 19.188 nmol/mL and 7.595 nmol/mL and 10.649 nmol/mL and 14.349 nmol/mL and 13.645 nmol/mL and 27.103 nmol/mL and 16.348 nmol/mL and 12.726 nmol/mL and 11.931 nmol/mL and 26.935 nmol/mL and 15.040 nmol/mL and 12.989 nmol/mL and 33.653 nmol/mL and 7.573 nmol/mL
clearance (ml/min) the present compound ([2]; individual subjects 1-18, (level in urine×urine volume)/(24×60×serum level)): 64.2 mL/min and 54.2 mL/min and 58.1 mL/min and 80.8 mL/min and 64.3 mL/min and 53.0 mL/min and 72.3 mL/min and 60.7 mL/min and 91.7 mL/min and 56.1 mL/min and 89.1 mL/min and 61.9 mL/min and 89.2 mL/min and 77.6 mL/min and 67.7 mL/min and 65.3 mL/min and 52.8 mL/min

From patent US6610502B1, “Compound 2-amino-3-[2-(α-mannopyranosyl)indol-3-yl]propionic acid, process for preparing the same, and method for inspecting function of living body with the novel compound” (Kyowa Medex Co., Ltd., priority 1997, dated 2003)
